Assays:
naïve CD4+ T cells = assay: Human regulatory T cell differentiation assay; assay type: cell-based; details: 6 days
Description: Peripheral blood mononuclear cells (PBMCs) from whole blood donated by health volunteers were separated by Ficoll-Paque gradient centrifugation and naïve CD4^+ T cells were subsequently isolated using magnet beads (EasySep™ Human Naïve CD4^+ T Cell Isolation Kit, Cambridge, MA). For regulatory T cell (Treg) differentiation assay, naïve CD4^+ T cells were cultured (1-10×10^4 cells) in CTS OpTmizer medium for 6 days and stimulated with 5 ng/ml TGF-β, 100 U/ml IL-2, and ImmunoCult™ Human […] T Cell Activator; Stemcell #10990) with/without our Compounds. Cell viability was determined using a viability dye (eBioscience Fixable Viability Dye eFluor 780: ThermoFisher 65-0865-14) at 1:500 dilution. The cells were gated for Treg, defined as Live, CD11c^−, CD14^−, CD19^−, CD8^−, CD4^+, CD3^+, CD25^+, FOXP3^+. Percent (%) Tregs were calculated as percentage of CD4^+, CD25^+, FOXP3^+ cells over total CD4 T cells. Statistical analysis was performed with GraphPad Prism Software Using One-Way ANOVA.

neutrophil = assay: Neutrophil chemokine production assay; assay type: cell-based, human; details: 12 h
Description: A volume 25 mL of human blood was layered over 15 mL of Histopaque®-1077 and centrifuged at 500 g, RT, for 30 min with no break applied to the centrifuge. The PBMC band and Histopaque®-1077 layer were removed leaving behind the bottom red layer which was mixed with 40 mL of 1× red blood cell (RBC) lysis buffer (Sigma-Aldrich) was and split into two 50 mL tubes. The volume for both fractions was brought to 50 mL with RBC lysis buffer, mixed by inversion, and then incubated at RT for 10 min. Solutions were centrifuged at 250 g, for 10 min at RT and the supernatant liquids removed. The reddish pellets were re-suspended in 1 mL of RBC lysis buffer and combined. The cell suspension was incubated for 5 min at RT in RBC lysis buffer. After incubation 45 mL of Hanks Balanced Salt Solution with no calcium, magnesium or phenol red (HBSS−) was added, the cell suspension was spun (250 g for 10 min at RT), and supernatant liquids were removed. The white pellet was re-suspended in 1 mL of HBSS−, and cell counts were determined. The neutrophil cell suspension was brought to a concentration of 1.11e6 cells/mL in RPMI complete (Sigma-Aldrich), and 180 μL of cell suspension was transferred to all wells within a sterile 96-well tissue culture treated plate resulting in 2.0e5 cells/well. […] After incubation, 10 μL of 2 μg/mL LPS solution in RPMI complete was added to each well except for control wells, which received an additional 10 μL of media. Cells were incubated for 12 h (37° C., 5% CO2), after which plates were centrifuged at 250 g, RT, for 5 min and supernatant liquids were obtained and stored at −80° C. until analyzed via Luminex® Multiplex Assay for various chemokines and cytokines. Three data points were acquired from two different blood donors and averaged.

CN(CCOc1ccc(CC2SC(=O)NC2=O)cc1)c1ccccn1 (stereo not drawn) [Rosiglitazone, rosiglitazone]
Cell viability % DMSO (naïve CD4+ T cells; 10 uM): = (90%> <110%: =) | Cell viability % DMSO (naïve CD4+ T cells; 100 uM): − (<90%: −)

CC[C@H]1[C@@H](O)[C@@H]2[C@H](CC[C@]3(C)[C@@H]([C@H](C)CCC(=O)O)CC[C@@H]23)[C@@]2(C)CC[C@@H](O)C[C@@H]12 [Obeticholic acid]
Cell viability % DMSO (naïve CD4+ T cells; 100 uM): = (90%> <110%: =)

CC(O)CC(=O)[O-].[Na+] (stereo not drawn) [Sodium BHB]
Cell viability % DMSO (naïve CD4+ T cells; 2 mM): = (90%> <110%: =) | Treg induction % DMSO (naïve CD4+ T cells; 2 mM): + (110%> <130%: +) | Cell viability % DMSO (naïve CD4+ T cells; 20 mM): − (<90%: −) | Treg induction % DMSO (naïve CD4+ T cells; 20 mM): = (90%> <110%: =)

CCCC(=O)O [butyrate]
% IL-8 (Vehicle + LPS = 100%) (neutrophil; 500.0 μM): ++ (++ = <70%Vehicle) | % MIP-1α (Vehicle + LPS = 100%) (neutrophil; 500.0 μM): +++ (+++ = <50% Vehicle) | % MIP-1β (DMSO + LPS = 100%) (neutrophil; 500.0 μM): +++ (+++ = <50% Vehicle) | % IL-8 (Vehicle + LPS = 100%) (neutrophil; 1000.0 μM): ++ (++ = <70%Vehicle) | % MIP-1α (Vehicle + LPS = 100%) (neutrophil; 1000.0 μM): +++ (+++ = <50% Vehicle) | % MIP-1β (DMSO + LPS = 100%) (neutrophil; 1000.0 μM): +++ (+++ = <50% Vehicle)

C[C@@H](O)CCO [(R)-1,3-Butanediol]
Cell viability % DMSO (naïve CD4+ T cells; 100 uM): = (90%> <110%: =) | Cell viability % DMSO (naïve CD4+ T cells; 0.5 mM): = (90%> <110%: =)
